Where two headings read alike, the source gives them in different places.
How the values were obtained:
Assay type in all cases: binding
[1] = molecular target: BRPF1B (Homo sapiens, UniProt P55201); assay: DSF selectivity screening; conditions: 10 μM compound
[2] = molecular target: 468 kinases including some pathogenic mutants (Homo sapiens, UniProt O00506); assay: biochemical; conditions: YSK1 (Entrez STK25), 1000 nM; read-out: Percent Control
[3] = molecular target: 468 kinases including some pathogenic mutants (Homo sapiens, UniProt O43293); assay: biochemical; conditions: DAPK3 (Entrez DAPK3), 100 nM; read-out: Percent Control
[4] = molecular target: 468 kinases including some pathogenic mutants (Homo sapiens, UniProt O60674); assay: biochemical; conditions: JAK2(JH1domain-catalytic) (Entrez JAK2), 1000 nM; read-out: Percent Control
[5] = molecular target: 468 kinases including some pathogenic mutants (Homo sapiens, UniProt P07947); assay: biochemical; conditions: YES (Entrez YES1), 100 nM; read-out: Percent Control
[6] = molecular target: 468 kinases including some pathogenic mutants (Homo sapiens, UniProt P07948); assay: biochemical; conditions: LYN (Entrez LYN), 100 nM; read-out: Percent Control
[7] = molecular target: 468 kinases including some pathogenic mutants (Homo sapiens, UniProt P20794); assay: biochemical; conditions: MAK (Entrez MAK), 1000 nM; read-out: Percent Control
Sequence of 468 kinases including some pathogenic mutants (Homo sapiens, UniProt P20794) (P20794 whole entry, change not shown): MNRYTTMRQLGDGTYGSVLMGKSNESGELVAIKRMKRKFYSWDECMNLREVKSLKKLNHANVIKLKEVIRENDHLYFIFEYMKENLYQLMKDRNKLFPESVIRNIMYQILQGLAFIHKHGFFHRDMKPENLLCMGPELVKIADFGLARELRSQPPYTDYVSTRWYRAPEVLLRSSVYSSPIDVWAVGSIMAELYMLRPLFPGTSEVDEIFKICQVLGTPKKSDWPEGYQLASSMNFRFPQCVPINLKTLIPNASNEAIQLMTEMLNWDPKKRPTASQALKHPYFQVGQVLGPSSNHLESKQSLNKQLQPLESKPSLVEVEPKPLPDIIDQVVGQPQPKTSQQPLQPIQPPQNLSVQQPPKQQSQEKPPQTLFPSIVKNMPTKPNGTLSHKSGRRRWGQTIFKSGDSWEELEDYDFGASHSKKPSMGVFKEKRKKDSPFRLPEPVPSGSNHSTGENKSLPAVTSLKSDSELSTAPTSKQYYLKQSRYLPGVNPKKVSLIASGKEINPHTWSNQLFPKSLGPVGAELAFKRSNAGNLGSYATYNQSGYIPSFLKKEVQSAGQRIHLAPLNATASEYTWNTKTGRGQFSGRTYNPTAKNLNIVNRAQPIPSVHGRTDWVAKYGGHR

[8] = molecular target: 468 kinases including some pathogenic mutants (Homo sapiens, UniProt P31749); assay: biochemical; conditions: AKT1 (Entrez AKT1), 100 nM; read-out: Percent Control
Sequence of 468 kinases including some pathogenic mutants (Homo sapiens, UniProt P31749) (P31749 whole entry, change not shown): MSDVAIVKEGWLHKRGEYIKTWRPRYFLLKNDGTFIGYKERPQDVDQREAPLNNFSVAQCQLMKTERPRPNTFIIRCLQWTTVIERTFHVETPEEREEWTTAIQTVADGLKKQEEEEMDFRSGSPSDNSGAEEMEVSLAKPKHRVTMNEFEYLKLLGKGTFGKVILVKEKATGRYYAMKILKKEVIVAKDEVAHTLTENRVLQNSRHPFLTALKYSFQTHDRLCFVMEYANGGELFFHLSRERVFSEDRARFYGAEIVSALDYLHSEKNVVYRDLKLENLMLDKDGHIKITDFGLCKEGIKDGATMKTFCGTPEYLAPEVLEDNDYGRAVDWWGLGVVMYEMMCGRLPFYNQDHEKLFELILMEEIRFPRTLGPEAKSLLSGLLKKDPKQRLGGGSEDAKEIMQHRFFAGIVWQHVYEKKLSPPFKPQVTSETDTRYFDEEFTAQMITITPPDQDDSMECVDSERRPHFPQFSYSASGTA

[9] = molecular target: 468 kinases including some pathogenic mutants (Homo sapiens, UniProt P46734); assay: biochemical; conditions: MEK3 (Entrez MAP2K3), 100 nM; read-out: Percent Control
Sequence of 468 kinases including some pathogenic mutants (Homo sapiens, UniProt P46734) (P46734 whole entry, change not shown): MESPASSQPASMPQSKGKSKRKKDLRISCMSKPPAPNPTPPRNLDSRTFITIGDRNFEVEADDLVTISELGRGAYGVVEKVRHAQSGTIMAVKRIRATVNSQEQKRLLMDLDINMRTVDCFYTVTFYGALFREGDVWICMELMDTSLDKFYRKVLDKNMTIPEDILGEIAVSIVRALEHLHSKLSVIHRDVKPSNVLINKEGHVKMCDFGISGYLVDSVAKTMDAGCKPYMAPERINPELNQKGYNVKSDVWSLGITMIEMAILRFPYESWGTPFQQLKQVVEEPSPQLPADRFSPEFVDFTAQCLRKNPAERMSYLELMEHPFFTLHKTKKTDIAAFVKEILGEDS

[10] = molecular target: 468 kinases including some pathogenic mutants (Homo sapiens, UniProt P48736); assay: biochemical; conditions: PIK3CG (Entrez PIK3CG), 100 nM; read-out: Percent Control
[11] = molecular target: 468 kinases including some pathogenic mutants (Homo sapiens, UniProt P78362); assay: biochemical; conditions: SRPK2 (Entrez SRPK2), 1000 nM; read-out: Percent Control
[12] = molecular target: 468 kinases including some pathogenic mutants (Homo sapiens, UniProt Q02763); assay: biochemical; conditions: TIE2 (Entrez TEK), 1000 nM; read-out: Percent Control
Sequence of 468 kinases including some pathogenic mutants (Homo sapiens, UniProt Q02763) (Q02763 23-1124, change not shown): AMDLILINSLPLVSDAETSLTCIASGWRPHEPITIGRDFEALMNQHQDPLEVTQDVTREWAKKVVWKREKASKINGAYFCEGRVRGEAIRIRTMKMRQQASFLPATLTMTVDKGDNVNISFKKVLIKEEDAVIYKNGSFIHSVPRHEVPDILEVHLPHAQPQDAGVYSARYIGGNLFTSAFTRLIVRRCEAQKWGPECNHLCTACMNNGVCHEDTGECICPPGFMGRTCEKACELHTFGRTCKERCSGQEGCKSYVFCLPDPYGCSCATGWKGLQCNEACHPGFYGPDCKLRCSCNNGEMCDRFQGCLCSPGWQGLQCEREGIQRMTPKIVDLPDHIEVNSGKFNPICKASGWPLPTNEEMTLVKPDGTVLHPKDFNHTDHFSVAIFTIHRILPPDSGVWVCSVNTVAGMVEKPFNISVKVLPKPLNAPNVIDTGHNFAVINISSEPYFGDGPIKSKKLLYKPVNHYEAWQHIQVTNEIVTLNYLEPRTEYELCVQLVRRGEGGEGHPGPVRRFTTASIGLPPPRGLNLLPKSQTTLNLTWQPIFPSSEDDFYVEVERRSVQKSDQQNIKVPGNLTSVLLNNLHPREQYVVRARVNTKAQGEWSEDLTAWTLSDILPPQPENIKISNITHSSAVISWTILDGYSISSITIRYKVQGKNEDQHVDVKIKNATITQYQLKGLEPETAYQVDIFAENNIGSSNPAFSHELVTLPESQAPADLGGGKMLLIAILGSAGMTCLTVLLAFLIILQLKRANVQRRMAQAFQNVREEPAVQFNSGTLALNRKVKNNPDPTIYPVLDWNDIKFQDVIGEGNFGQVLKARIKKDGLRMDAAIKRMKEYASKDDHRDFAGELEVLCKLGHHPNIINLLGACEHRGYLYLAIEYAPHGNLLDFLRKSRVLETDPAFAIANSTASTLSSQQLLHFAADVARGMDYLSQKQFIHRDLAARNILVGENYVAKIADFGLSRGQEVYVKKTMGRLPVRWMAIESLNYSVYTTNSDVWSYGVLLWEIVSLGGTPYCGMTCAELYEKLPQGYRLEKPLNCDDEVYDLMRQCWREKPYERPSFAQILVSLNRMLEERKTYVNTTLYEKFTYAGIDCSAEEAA

[13] = molecular target: 468 kinases including some pathogenic mutants (Homo sapiens, UniProt Q13555); assay: biochemical; conditions: CAMK2G (Entrez CAMK2G), 100 nM; read-out: Percent Control
[14] = molecular target: 468 kinases including some pathogenic mutants (Homo sapiens, UniProt Q32MK0); assay: biochemical; conditions: MLCK (Entrez MYLK3), 100 nM; read-out: Percent Control
[15] = molecular target: 468 kinases including some pathogenic mutants (Homo sapiens, UniProt Q52WX2); assay: biochemical; conditions: SBK1 (Entrez SBK1), 1000 nM; read-out: Percent Control
[16] = molecular target: 468 kinases including some pathogenic mutants (Homo sapiens, UniProt Q9H422); assay: biochemical; conditions: HIPK3 (Entrez HIPK3), 100 nM; read-out: Percent Control
[17] = molecular target: 468 kinases including some pathogenic mutants (Homo sapiens, UniProt Q9NYY3); assay: biochemical; conditions: PLK2 (Entrez PLK2), 1000 nM; read-out: Percent Control
[18] = molecular target: 468 kinases including some pathogenic mutants (Homo sapiens, UniProt Q9UKE5); assay: biochemical; conditions: TNIK (Entrez TNIK), 100 nM; read-out: Percent Control
Sequence of 468 kinases including some pathogenic mutants (Homo sapiens, UniProt Q9UKE5) (Q9UKE5 whole entry, change not shown): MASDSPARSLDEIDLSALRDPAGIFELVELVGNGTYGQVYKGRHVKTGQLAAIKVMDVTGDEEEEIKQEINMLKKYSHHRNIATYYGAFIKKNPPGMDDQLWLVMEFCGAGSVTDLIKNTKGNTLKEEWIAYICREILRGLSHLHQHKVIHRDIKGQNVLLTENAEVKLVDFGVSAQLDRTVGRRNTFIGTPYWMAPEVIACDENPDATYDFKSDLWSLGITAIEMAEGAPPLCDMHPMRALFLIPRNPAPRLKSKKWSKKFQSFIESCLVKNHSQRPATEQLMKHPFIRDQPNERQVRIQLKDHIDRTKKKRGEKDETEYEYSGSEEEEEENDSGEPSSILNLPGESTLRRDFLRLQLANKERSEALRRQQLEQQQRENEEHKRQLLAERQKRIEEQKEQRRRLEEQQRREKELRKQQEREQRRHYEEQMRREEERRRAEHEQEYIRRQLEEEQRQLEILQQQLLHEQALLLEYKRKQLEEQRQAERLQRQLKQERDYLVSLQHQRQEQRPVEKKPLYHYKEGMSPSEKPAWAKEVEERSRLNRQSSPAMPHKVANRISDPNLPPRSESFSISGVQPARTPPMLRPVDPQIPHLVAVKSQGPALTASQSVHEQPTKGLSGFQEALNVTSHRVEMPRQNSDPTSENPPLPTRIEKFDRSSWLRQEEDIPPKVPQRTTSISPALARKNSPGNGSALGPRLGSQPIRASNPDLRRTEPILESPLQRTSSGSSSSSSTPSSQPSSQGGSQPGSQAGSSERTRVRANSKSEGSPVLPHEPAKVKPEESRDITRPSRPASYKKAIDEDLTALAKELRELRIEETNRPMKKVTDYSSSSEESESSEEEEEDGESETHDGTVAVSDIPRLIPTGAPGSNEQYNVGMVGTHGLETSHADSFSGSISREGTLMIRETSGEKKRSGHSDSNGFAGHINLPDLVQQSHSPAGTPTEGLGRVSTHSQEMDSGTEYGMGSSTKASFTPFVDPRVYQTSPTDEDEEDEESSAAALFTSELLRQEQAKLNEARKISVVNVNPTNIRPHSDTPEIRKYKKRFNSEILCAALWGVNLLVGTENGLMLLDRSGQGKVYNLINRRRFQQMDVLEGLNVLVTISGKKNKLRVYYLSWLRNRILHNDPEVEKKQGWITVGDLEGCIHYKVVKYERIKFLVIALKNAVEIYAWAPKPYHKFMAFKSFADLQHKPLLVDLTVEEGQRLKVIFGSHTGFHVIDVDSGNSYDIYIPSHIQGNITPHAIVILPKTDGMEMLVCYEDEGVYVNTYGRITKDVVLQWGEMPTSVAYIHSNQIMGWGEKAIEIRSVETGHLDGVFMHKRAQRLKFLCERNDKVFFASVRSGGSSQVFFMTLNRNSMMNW

[19] = system: 468 kinases including some pathogenic mutants; assay: biochemical
[20] = molecular target: MET(M1250T) (Homo sapiens, UniProt P08581, M1250T); assay: biochemical; conditions: 1000 nM, read-out: Percent Control
[21] = molecular target: ABL1(H396P)-phosphorylated (Homo sapiens, UniProt P00519, H396P); assay: biochemical; conditions: read-out: Percent Control
[22] = molecular target: EGFR(G719S) (Homo sapiens, UniProt P00533, G719S); assay: biochemical; conditions: 1000 nM, read-out: Percent Control
[23] = molecular target: ABL1(E255K)-phosphorylated (Homo sapiens, UniProt P00519, E255K); assay: biochemical; conditions: read-out: Percent Control
[24] = molecular target: FLT3(N841I) (Homo sapiens, UniProt P36888, N841I); assay: biochemical; conditions: 1000 nM, read-out: Percent Control
[25] = molecular target: PIK3CA(H1047L) (Homo sapiens, UniProt P42336, H1047L); assay: biochemical; conditions: read-out: Percent Control
[26] = molecular target: FLT3(K663Q) (Homo sapiens, UniProt P36888, K663Q); assay: biochemical; conditions: 1000 nM, read-out: Percent Control
[27] = molecular target: ABL1(F317I)-phosphorylated (Homo sapiens, UniProt P00519, F317I); assay: biochemical; conditions: compound concentration 100 nM; Entrez ABL1; read-out: Percent Control
[28] = molecular target: EGFR(L747-S752del, P753S) (Homo sapiens, UniProt P00533, DEL747-752/P753S); assay: biochemical; conditions: compound concentration 100 nM; Entrez EGFR; read-out: Percent Control
[29] = molecular target: EGFR(L858R) (Homo sapiens, UniProt P00533, L858R); assay: biochemical; conditions: compound concentration 100 nM; Entrez EGFR; read-out: Percent Control
[30] = molecular target: EGFR(L858R,T790M) (Homo sapiens, UniProt P00533, L858R/T790M); assay: biochemical; conditions: compound concentration 100 nM; Entrez EGFR; read-out: Percent Control
Sequence of EGFR(L858R,T790M) (P00533 25-1210 T790M/L858R): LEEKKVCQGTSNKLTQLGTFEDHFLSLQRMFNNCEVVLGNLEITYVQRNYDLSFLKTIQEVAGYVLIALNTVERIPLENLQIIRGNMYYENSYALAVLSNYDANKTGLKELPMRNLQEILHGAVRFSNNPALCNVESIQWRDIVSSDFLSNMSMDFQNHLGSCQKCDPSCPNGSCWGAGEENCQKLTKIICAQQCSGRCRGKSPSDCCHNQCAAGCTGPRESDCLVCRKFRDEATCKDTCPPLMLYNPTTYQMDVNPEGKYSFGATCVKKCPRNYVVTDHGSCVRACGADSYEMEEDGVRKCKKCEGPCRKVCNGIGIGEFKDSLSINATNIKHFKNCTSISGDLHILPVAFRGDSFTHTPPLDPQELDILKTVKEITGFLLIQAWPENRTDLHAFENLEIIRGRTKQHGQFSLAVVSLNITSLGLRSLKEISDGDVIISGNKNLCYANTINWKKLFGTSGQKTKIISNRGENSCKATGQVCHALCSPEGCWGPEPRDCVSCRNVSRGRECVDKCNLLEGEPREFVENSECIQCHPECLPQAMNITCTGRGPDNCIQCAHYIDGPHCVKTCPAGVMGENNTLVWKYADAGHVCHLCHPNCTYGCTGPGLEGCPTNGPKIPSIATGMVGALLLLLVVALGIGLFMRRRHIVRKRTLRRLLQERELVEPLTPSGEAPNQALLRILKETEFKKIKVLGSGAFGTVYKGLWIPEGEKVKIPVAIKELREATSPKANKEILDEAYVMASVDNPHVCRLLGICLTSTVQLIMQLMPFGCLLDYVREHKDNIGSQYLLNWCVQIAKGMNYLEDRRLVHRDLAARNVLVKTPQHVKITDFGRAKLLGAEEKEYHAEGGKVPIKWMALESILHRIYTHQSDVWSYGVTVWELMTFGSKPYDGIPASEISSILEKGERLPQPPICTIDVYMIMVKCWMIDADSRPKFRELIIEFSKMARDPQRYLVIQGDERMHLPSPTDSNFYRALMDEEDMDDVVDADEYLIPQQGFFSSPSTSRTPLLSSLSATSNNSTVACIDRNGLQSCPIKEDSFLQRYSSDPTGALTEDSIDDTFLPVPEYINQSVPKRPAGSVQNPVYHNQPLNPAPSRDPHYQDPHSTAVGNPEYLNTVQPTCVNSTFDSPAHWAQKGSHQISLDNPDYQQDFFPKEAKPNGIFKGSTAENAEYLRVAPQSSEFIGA

Q: Which ΔTm at 10 µM [1] does the source give for `CN1C(=O)[C@@H](N2CCc3c(nn(Cc4ccccc4)c3C(N)=O)C2=O)COc2cc(Cl)ccc21` [Compound 10, (S)-2-benzyl-6-(8-chloro-5-methyl-4-oxo-2,3,4,5-tetrahydrobenzo[b][1,4]oxazepin-3-yl)-7-oxo-4,5,6,7-tetrahydro-2H-pyrazolo[3,4-c]pyridine-3-carboxamide] here?
A: -0.1 °C

Q: What about the remaining activity at 1 µM [2] of the same compound?
A: 100%

Q: And the remaining activity at 0.1 µM [3]?
A: 79%

Q: And the remaining activity at 1 µM [4]?
A: 100%

Q: And the remaining activity at 0.1 µM [5]?
A: 89%

Q: What about the remaining activity at 0.1 µM [6] of the same compound?
A: 100%

Q: What about the remaining activity at 1 µM [7] of the same compound?
A: 100%

Q: And the remaining activity at 0.1 µM [8]?
A: 87%

Q: And the remaining activity at 0.1 µM [9]?
A: 85%

Q: And the remaining activity at 0.1 µM [10]?
A: 65%

Q: What about the remaining activity at 1 µM [11] of the same compound?
A: 100%

Q: And the remaining activity at 1 µM [12]?
A: 100%

Q: And the remaining activity at 0.1 µM [13]?
A: 78%

Q: And the remaining activity at 0.1 µM [14]?
A: 91%

Q: What about the remaining activity at 1 µM [15] of the same compound?
A: 100%

Q: And the remaining activity at 0.1 µM [16]?
A: 77%

Q: What about the remaining activity at 1 µM [17] of the same compound?
A: 100%

Q: What about the remaining activity at 0.1 µM [18] of the same compound?
A: 100%

Q: What about the “Percent Control” value [19] of the same compound?
A: 100%

Q: What about the “Percent Control” value ([19]; FLT3(ITD) (Entrez FLT3), 100 nM) of the same compound?
A: 54%

Q: What about the remaining activity at 1 µM [20] of the same compound?
A: 83%

Q: And the remaining activity at 1 µM [21]?
A: 88%

Q: What about the remaining activity at 1 µM [22] of the same compound?
A: 92%

Q: And the remaining activity at 1 µM [23]?
A: 94%

Q: What about the remaining activity at 1 µM [24] of the same compound?
A: 96%

Q: What about the remaining activity at 1 µM [25] of the same compound?
A: 99%

Q: What about the remaining activity at 1 µM [26] of the same compound?
A: 100%

Q: And the remaining activity at 0.1 µM [27]?
A: 91%

Q: And the remaining activity at 0.1 µM [28]?
A: 97%

Q: What about the remaining activity at 0.1 µM [29] of the same compound?
A: 100%

Q: What about the remaining activity at 0.1 µM [30] of the same compound?
A: 100%
